Experimental data as given in BindingDB's records for doi:10.1021/cb500143h (Tottori University , Yonago 683-8503, Japan, 2014).

Biological target: T1, Alpha-galactosidase A (Homo sapiens, UniProt P06280)
T1 sequence (P06280 whole entry): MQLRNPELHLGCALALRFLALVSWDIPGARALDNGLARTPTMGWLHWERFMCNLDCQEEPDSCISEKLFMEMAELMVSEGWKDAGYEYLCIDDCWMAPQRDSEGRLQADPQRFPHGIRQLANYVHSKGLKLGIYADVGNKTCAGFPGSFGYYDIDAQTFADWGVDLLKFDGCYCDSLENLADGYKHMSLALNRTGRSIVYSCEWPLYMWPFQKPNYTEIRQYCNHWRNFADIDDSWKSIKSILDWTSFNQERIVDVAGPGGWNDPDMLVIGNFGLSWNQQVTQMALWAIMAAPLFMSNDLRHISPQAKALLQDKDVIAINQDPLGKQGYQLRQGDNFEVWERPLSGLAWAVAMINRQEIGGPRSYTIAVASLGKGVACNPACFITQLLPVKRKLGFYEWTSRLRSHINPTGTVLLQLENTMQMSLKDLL
Test: α-Gal A Assay

Row | SMILES | IC50 (pH 5) [nM] | IC50 (pH 7) [nM]
1 | OC[C@@H]1[C@H](O)[C@H](O)[C@@H](O)CN1C(=S)NCc1ccccc1 [DGJ-BnT] | 20300 | 4410
2 | OC[C@@H]1[C@H](O)[C@H](O)[C@@H](O)CN1C(=S)Nc1cccc2ccccc12 [DGJ-NphT] | 1600 | 370
3 | COc1ccc(NC(=S)N2C[C@H](O)[C@@H](O)[C@@H](O)[C@H]2CO)cc1 [DGJ-pMe OPhT] | 74 | 16
4 | O[C@@H]1[C@@H](O)CN2/C(=N\c3ccc(F)cc3)SCC2[C@@H]1O (some centres not stated) [pF PhIM-DGJ] | 9670 | 2180
5 | CSc1ccc(NC(=S)N2C[C@H](O)[C@@H](O)[C@@H](O)[C@H]2CO)cc1 [DGJ-pMe SPhT] | 8.3 | 1.4
6 | OC[C@@H]1[C@H](O)[C@H](O)[C@@H](O)CN1C(=S)Nc1ccc(F)cc1 [DGJ-pF PhT] | 340 | 43
